Laboratory results: ChEMBL document CHEMBL1156829 (Proc Natl Acad Sci U S A, 2008)

How the values were obtained:
[1] = NOVARTIS: Cytotoxicity against human hepatocellular carcinoma cell line (Huh7); assay type: toxicity, cell-based, Huh-7; conditions: Huh7 cells (hepatocellular carcinoma cell line)
Plasmodium falciparum [2] = assay: NOVARTIS: Inhibition of Plasmodium falciparum W2 (drug-resistant) proliferation in erythrocyte-based infection assay; assay type: functional, organism-based; conditions: Plasmodium falciparum, W2; read-out: EC50
Plasmodium falciparum [3] = assay: NOVARTIS: Inhibition of Plasmodium falciparum 3D7 (drug-susceptible) proliferation in erythrocyte-based infection assay; assay type: functional, organism-based; conditions: Plasmodium falciparum, 3D7

| SMILES | CC50 [1] | EC50 (Plasmodium falciparum [2]) | EC50 (Plasmodium falciparum [3]) |
| --- | --- | --- | --- |
| COc1ccc2nc(C)cc(Nc3ccc(Oc4ccc(Cl)c5ccccc45)c(Cl)c3)c2c1 | 19.8 µM | 826 nM | 365 nM |
| CCOc1ccc2nc(SCc3nc(N)nc(N4CCOCC4)n3)sc2c1 | > 10 µM | > 1250 nM | > 627 nM |
| CCCn1nc(Oc2nc(NCC)cc(OC)n2)ccc1=O | > 100 µM | 677 nM | 384 nM |
| CCN(CC)Cc1cc(Nc2nc3ccccc3[nH]2)cc(CN(CC)CC)c1O | > 10 µM | > 1250 nM | 864 nM |
| Cc1ccc(OCC(=O)Nc2cccc(-c3nc4ncccc4o3)c2)cc1C | > 100 µM | 2050 nM | 1900 nM |
| CC(=O)c1ccc(OCCSc2nc3c(N)ncnc3[nH]2)cc1 | > 100 µM | > 9150 nM | > 11200 nM |
| CC(C)CNC(=O)c1cnc(NCCCN2CCCC2)nc1NCC1CCCCC1 | > 10 µM | > 1350 nM | 474 nM |
| CCN(CC)c1ccc(N=Cc2ccc(Sc3nc4ccccc4s3)o2)cc1 | 10.8 µM | 98.8 nM | 271 nM |
| CCCCCCN(C(=O)c1ccc2ccccc2c1)C(CC)c1nc2ccccc2c(=O)n1-c1ccccc1OC (configuration not stated) | > 10 µM | 631 nM | 641 nM |
| c1cc(-c2nc3ccccc3[nH]2)nc(-c2nc3ccccc3[nH]2)c1 | 47.5 µM | 916 nM | 686 nM |
| CCN1CCN(c2cc(C)c3cc(NC(=O)c4cccc([N+](=O)[O-])c4)ccc3n2)CC1 | 20.3 µM | 267 nM | 96 nM |
| COC(=O)C1=CNC=C(C(=O)OC)C1c1cc(Br)ccc1OC | > 57.8 µM | 4520 nM | > 12200 nM |
| CN(Cc1cc(-c2ccccc2)ccc1O)CC(O)c1ccccc1 (configuration not stated) | > 10 µM | 18.1 nM | 438 nM |
| CCc1ccc2[nH]c(=O)c(CN(Cc3ccc(OC)cc3)C(=S)NCCCN(CC)CC)cc2c1 | 18.2 µM | 554 nM | 3460 nM |
| Cc1nc(N2CCN(C)CC2)c2c(C)c(C(=O)NCCN(C)C)sc2n1 | > 10 µM | > 1000 nM | > 1600 nM |
| COc1cc(NC(C)CCCN(Cc2ccc(OC)c(OC)c2)C(=O)c2ccccc2C)c2ncccc2c1 (configuration not stated) | > 12.2 µM | 831 nM | 867 nM |
| O=C(O)c1ccc2c(c1)N=CN(C1CCCCC1)C2 | > 10 µM | 98.3 nM | 268 nM |
| FC(F)(F)c1cccc(C=NNc2nc3ccccc3[nH]2)c1 | 63.2 µM | 115 nM | 94.6 nM |
| CCCCNCCN1CCN(c2ccc(OC)cc2)C[C@@H]1c1ccccc1 | > 10 µM | 26.7 nM | > 1280 nM |
| O=c1c2c3c(sc2ncn1Cc1cccc(Cl)c1)CC(N1CCCCC1)CC3 (configuration not stated) | 27.8 µM | 2640 nM | 2950 nM |
| CCCC(C(=O)NCCC(C)C)N(C(=O)c1snc(C(N)=O)c1N)c1ccc(C(C)C)cc1 (configuration not stated) | > 100 µM | > 12500 nM | 5440 nM |
| O=C(C1CC=CCC1)N1CCCC(c2ncncc2-c2ccncc2)C1 (configuration not stated) | > 10 µM | > 1250 nM | 1370 nM |
| C=CCSc1oc(-c2ccco2)nc1[P+](c1ccccc1)(c1ccccc1)c1ccccc1 | 8.42 µM | 416 nM | 310 nM |

| SMILES | CC50 [1] | EC50 (Plasmodium falciparum [2]) | EC50 (Plasmodium falciparum [3]) |
| --- | --- | --- | --- |
| CC(C)c1cccc(C(C)C)c1NC(=O)N(Cc1ccccc1)C(C)c1nc2ccccc2c(=O)n1-c1ccc(Cl)cc1 (configuration not stated) | > 1.46 µM | 1020 nM | 985 nM |
| CC(C)(C)c1nn(-c2ccc(Cl)cc2)c2[nH]c(=O)c(CNCc3ccc(Cl)cc3)cc12 | > 100 µM | 129 nM | 351 nM |
| CSc1cccc([C@@H]2C[C@H]3CN(c4ccccc4)C(=O)[C@]34CCCN24)c1 | 23.5 µM | 480 nM | 1210 nM |
| CCOc1cc2c(cc1OCC)C(c1ccc(O)c(Cl)c1)NCC2 (configuration not stated) | > 97.9 µM | 12.5 nM | 157 nM |
| CCC(c1nc2ccccc2c(=O)n1-c1ccc(Cl)cc1C)N(CCc1ccccc1)C(=O)c1cccc(OC)c1 (configuration not stated) | > 10 µM | 232 nM | 519 nM |
| COc1ccc(NC(=O)CCCCCn2c(SCC(=O)NCC3CCCO3)nc3ccsc3c2=O)cc1 (configuration not stated) | > 10 µM | > 1320 nM | > 725 nM |
| Cc1ccc2c(c1)N=C(c1ccc([N+](=O)[O-])cc1)CO2 | > 100 µM | > 12500 nM | > 1300 nM |
| O[Si](CCCN1CCCCC1)(c1ccccc1)C1CCCCC1 (configuration not stated) | 33 µM | 12.1 nM | 23.6 nM |
| O=C1Nc2ccc(S(=O)(=O)Nc3ccc(NS(=O)(=O)c4ccc5c6c(cccc46)C(=O)N5)cc3)c3cccc1c23 | > 8.12 µM | > 1250 nM | > 1180 nM |
| Cc1cccc(N2CCN(c3nc4ccccc4c4nnc(C)n34)CC2)c1C | > 100 µM | 943 nM | 4400 nM |
| Cc1noc(C)c1S(=O)(=O)N(Cc1ccccc1)CC(O)CN1CCC(NC(=O)Cc2cccs2)C1 (configuration not stated) | > 10 µM | 141 nM | 175 nM |
| CC(C)(C[N+](C)(C)C)C1OC2CCCCC2C2C=CCCC21 (configuration not stated) | > 100 µM | 565 nM | 999 nM |
| CCOc1ccccc1-n1c(C(C)N(CCc2ccccc2)C(=O)c2ccc(Br)cc2)nc2ccccc2c1=O (configuration not stated) | > 10 µM | 834 nM | > 1250 nM |
| CC(NCCCN(C)C)c1cc(C(C)(C)C)cc2c1CCC2(C)C (configuration not stated) | 6.22 µM | 179 nM | 620 nM |
| CCN(CC)CCCC(C)N=c1[nH]c(C=Cc2ccccc2OC)nc2cc(Cl)ccc12 (configuration not stated) | 7.93 µM | 160 nM | 30.8 nM |
| OC(CN1CCN(c2ccnc3cc(Cl)ccc23)CC1)CN1CCN(c2ccnc3cc(Cl)ccc23)CC1 | > 10 µM | 29.6 nM | 85.6 nM |
| Fc1ccccc1Nc1nc(NCc2ccccc2)c2ccccc2n1 | 8.86 µM | 918 nM | 463 nM |
| CCOc1ccc(C(=O)Nc2cccc(-c3nc4cc(C)ccc4o3)c2C)cc1 | > 10 µM | > 968 nM | > 1250 nM |
| O=C(Nc1ccc(NC2=NCCN2)cc1)c1ccc(C(=O)Nc2ccc(NC3=NCCN3)cc2)cc1 | > 10 µM | 25.6 nM | 166 nM |
| O=C1C(Sc2nnc[nH]2)=CC(=NS(=O)(=O)c2cccs2)c2ccccc21 | 6.91 µM | 707 nM | 1530 nM |
| COc1ccc(OC)c(NC(=O)COc2cc3ccccc3cc2C(=O)Nc2cc(OC)c(Cl)cc2OC)c1 | > 100 µM | 782 nM | 1150 nM |
| CCOC(=O)CCC(=O)Oc1ccccc1-c1nc2ccccn2c1NC(C)(C)CC(C)(C)C | > 10 µM | 178 nM | 1060 nM |
| COc1ccc(NC(=O)Cn2c(C)c(C=O)c3ccccc32)cc1 | > 100 µM | 1770 nM | 1450 nM |

| SMILES | CC50 [1] | EC50 (Plasmodium falciparum [2]) | EC50 (Plasmodium falciparum [3]) |
| --- | --- | --- | --- |
| Cc1ccccc1NC(=S)NC(Cc1ccccc1)c1ccccc1 (configuration not stated) | > 10 µM | 340 nM | 374 nM |
| CN(CCCNc1ccnc2cc(Cl)ccc12)S(=O)(=O)c1ccc2ccccc2c1 | > 5.54 µM | 200 nM | 282 nM |
| COc1cccc(Nc2nc(NCC3CCCO3)c3ccccc3n2)c1 (configuration not stated) | 7.67 µM | 286 nM | 230 nM |
| CCN1C=CC(=Cc2ccc3cc(C)ccc3[n+]2C)C=C1 | > 58 µM | 140 nM | 170 nM |
| CC(C)CNc1nc(NCCCN2CCCC2)ncc1C(=O)NCCc1ccccc1 | > 10 µM | > 1250 nM | 719 nM |
| COC(=O)[C@@H]1C[C@@H](NC(=O)c2ccc(OC)cc2OC)CN1CC(c1ccccc1)c1ccccc1 | > 10 µM | 1190 nM | 590 nM |
| O=[N+]([O-])c1cccc(C=NNc2nc(NN=Cc3cccc([N+](=O)[O-])c3)nc(Nc3cccc4ccccc34)n2)c1 | > 10 µM | 442 nM | 509 nM |
| COc1ccc(C[n+]2cc(-c3ccc(Cl)cc3)n3ccccc32)cc1 | > 100 µM | 524 nM | 413 nM |
| CC(C)NC(=O)CN(C)C1c2ccccc2CCc2ccccc21 | > 9.18 µM | 254 nM | > 1380 nM |
| N#Cc1c(N)nc(C(Cl)(Cl)Cl)nc1-c1ccccc1 | > 100 µM | 184 nM | 498 nM |
| Cc1cccc(OCC(=O)NCCNC2=NS(=O)(=O)c3ccccc32)c1 | > 10 µM | 1680 nM | > 1120 nM |
| Cc1c(Cl)cccc1NC(=O)c1cccnc1Cl | > 10 µM | > 1140 nM | > 1250 nM |
| O=C(Nc1ccc(Oc2cccnc2)cc1)C1CCN(Cc2ccc3nonc3c2)CC1 | > 100 µM | 1420 nM | 1130 nM |
| CCOC(=O)C1=C(C)NC2=C(C(=O)CC(c3ccc(OC)cc3)C2)C1c1ccsc1 (configuration not stated) | > 100 µM | 62 nM | 302 nM |
| COc1ccc(-c2cc(-c3ccc(C)cc3)[nH]n2)c(O)c1 | 25.6 µM | 198 nM | 1520 nM |
| Cc1ccn2c(NC(C)(C)CC(C)(C)C)c(-c3ccccc3OC(=O)c3cccc(Cl)c3)nc2c1 | > 10 µM | 9.89 nM | 424 nM |
| Cc1ccc(-c2cc3c(nn2)-c2ccccc2C3=O)cc1 | 83.2 µM | 799 nM | 2000 nM |
| Oc1cccc(-c2cncc(-c3cccnc3)n2)c1 | > 10 µM | 1290 nM | 1300 nM |
| CN(C)c1ccc(/C=C/c2cc(/C=C/c3ccc(N(C)C)cc3)[n+]3ccccc3n2)cc1 | > 10 µM | 811 nM | 1340 nM |
| CCOC(=O)C(Cc1ccc(O)cc1)NC1=CC(=O)C(=O)c2ccccc21 (configuration not stated) | > 100 µM | 333 nM | 305 nM |
| Cc1cc(S(=O)(=O)NC(Cc2ccc([N+](=O)[O-])cc2)C(=O)O)c(Cl)cc1Cl (configuration not stated) | > 10 µM | 391 nM | > 1250 nM |
| O=S1(=O)CCC(O)c2ccsc21 (configuration not stated) | > 100 µM | > 12500 nM | 4180 nM |
| Cc1ccc2nc(-c3ccccc3)cc(C(=O)Nc3ccc(Cl)cc3)c2c1 | > 10 µM | 1040 nM | > 1610 nM |
